From PubChem BioAssay (NCI)
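Dose response: 5 concentrations. Exposure: 48 h. Format: 96-well plates. Endpoint: linear interpolation; highest concentration if not reached. TGI: concentration producing complete growth inhibition.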

Assays:
Test in all cases: NCI-60 cell line screen, 48 h
NCI-H23 lung = system: NCI-H23 lung
UACC-62 melanoma = system: UACC-62 melanoma
RXF 393 renal = system: RXF 393 renal
SNB-19 CNS = system: SNB-19 CNS
MDA-MB-231 breast = system: MDA-MB-231 breast
HOP-92 NSCLC = system: HOP-92 NSCLC
786-0 renal = system: 786-0 renal
SNB-75 CNS = system: SNB-75 CNS
NCI/ADR-RES ovarian = system: NCI/ADR-RES ovarian
HOP-62 NSCLC = system: HOP-62 NSCLC
CCRF-CEM leukemia = system: CCRF-CEM leukemia
SW-620 colon = system: SW-620 colon
HCT-15 colon = system: HCT-15 colon
T-47D breast = system: T-47D breast
EKVX NSCLC = system: EKVX NSCLC
SF-268 CNS = system: SF-268 CNS
A498 renal = system: A498 renal
KM12 colon = system: KM12 colon
SF-539 CNS = system: SF-539 CNS
SR leukemia = system: SR leukemia

C1=C2C3=[N+](CCCC3)CC2Cc2sccc21 (stereo not given)
TGI (NCI-H23 lung): > 100 µM
TGI (UACC-62 melanoma): > 100 µM
TGI (RXF 393 renal): > 100 µM
TGI (SNB-19 CNS): > 100 µM
TGI (MDA-MB-231 breast): > 100 µM
TGI (HOP-92 NSCLC): > 100 µM
TGI (786-0 renal): > 100 µM
TGI (SNB-75 CNS): > 100 µM
TGI (NCI/ADR-RES ovarian): > 100 µM
TGI (HOP-62 NSCLC): > 100 µM
TGI (CCRF-CEM leukemia): > 100 µM
TGI (SW-620 colon): > 100 µM
TGI (HCT-15 colon): > 100 µM
TGI (T-47D breast): > 100 µM
TGI (EKVX NSCLC): > 100 µM
TGI (SF-268 CNS): > 100 µM
TGI (A498 renal): > 100 µM
TGI (KM12 colon): > 100 µM

O=C(O)CN1CCN2CCCCCCCCN(CC1)CCN(CC(=O)O)CC2
TGI (UACC-62 melanoma): > 100 µM
TGI (SNB-19 CNS): > 100 µM
TGI (MDA-MB-231 breast): > 100 µM
TGI (HOP-92 NSCLC): > 100 µM
TGI (786-0 renal): > 100 µM
TGI (SNB-75 CNS): > 100 µM
TGI (NCI/ADR-RES ovarian): > 100 µM
TGI (SF-539 CNS): > 100 µM
TGI (HOP-62 NSCLC): > 100 µM
TGI (CCRF-CEM leukemia): > 100 µM
TGI (SW-620 colon): > 100 µM
TGI (HCT-15 colon): > 100 µM
TGI (T-47D breast): > 100 µM
TGI (EKVX NSCLC): > 100 µM
TGI (A498 renal): > 100 µM
TGI (KM12 colon): > 100 µM

CC(=O)/C(=C/N1CC(=O)NC1=S)C(=O)Nc1ccccc1C
TGI (NCI-H23 lung): > 100 µM
TGI (RXF 393 renal): > 100 µM
TGI (SNB-19 CNS): > 100 µM
TGI (MDA-MB-231 breast): > 100 µM
TGI (HOP-92 NSCLC): > 100 µM
TGI (786-0 renal): > 100 µM
TGI (SNB-75 CNS): > 100 µM
TGI (NCI/ADR-RES ovarian): > 100 µM
TGI (SF-539 CNS): > 100 µM
TGI (HOP-62 NSCLC): > 100 µM
TGI (SW-620 colon): > 100 µM
TGI (HCT-15 colon): > 100 µM
TGI (T-47D breast): > 100 µM
TGI (EKVX NSCLC): > 100 µM
TGI (SF-268 CNS): > 100 µM
TGI (A498 renal): > 100 µM
TGI (KM12 colon): > 100 µM

CC(C)CC(C#CCCOC(=O)c1ccccc1)OC(=O)c1ccccc1 (stereo not given)
TGI (NCI-H23 lung): > 10 µM
TGI (UACC-62 melanoma): > 10 µM
TGI (RXF 393 renal): > 10 µM
TGI (SNB-19 CNS): > 10 µM
TGI (MDA-MB-231 breast): > 10 µM
TGI (SR leukemia): > 10 µM
TGI (HOP-92 NSCLC): > 10 µM
TGI (786-0 renal): > 10 µM
TGI (SNB-75 CNS): > 10 µM
TGI (SF-539 CNS): > 10 µM
TGI (HOP-62 NSCLC): > 10 µM
TGI (CCRF-CEM leukemia): > 10 µM
TGI (SW-620 colon): > 10 µM
TGI (HCT-15 colon): > 10 µM
TGI (T-47D breast): > 10 µM
TGI (EKVX NSCLC): > 10 µM
TGI (SF-268 CNS): > 10 µM
TGI (A498 renal): > 10 µM
TGI (KM12 colon): > 10 µM

O=C1C2CCCC2N1Cc1ccccc1 (stereo not given)
TGI (NCI-H23 lung): > 100 µM
TGI (UACC-62 melanoma): > 100 µM
TGI (RXF 393 renal): > 100 µM
TGI (HOP-92 NSCLC): > 100 µM
TGI (786-0 renal): > 100 µM
TGI (SNB-75 CNS): > 100 µM
TGI (NCI/ADR-RES ovarian): > 100 µM
TGI (SF-539 CNS): > 100 µM
TGI (HOP-62 NSCLC): > 100 µM
TGI (CCRF-CEM leukemia): > 100 µM
TGI (SW-620 colon): > 100 µM
TGI (HCT-15 colon): > 100 µM
TGI (T-47D breast): > 100 µM
TGI (EKVX NSCLC): > 100 µM
TGI (SF-268 CNS): > 100 µM
TGI (A498 renal): > 100 µM
TGI (KM12 colon): > 100 µM

CC1(C)CC[C@]2(C)[C@@H](O)C[C@]3(C)C(=CC[C@@H]4[C@@]5(C)CC[C@H](O)C(C)(C)[C@@H]5CC[C@]43C)[C@@H]2C1
TGI (NCI-H23 lung): > 100 µM
TGI (UACC-62 melanoma): > 100 µM
TGI (RXF 393 renal): 22.4 µM
TGI (SNB-19 CNS): > 100 µM
TGI (MDA-MB-231 breast): 48.6 µM
TGI (HOP-92 NSCLC): 42.3 µM
TGI (786-0 renal): > 100 µM
TGI (NCI/ADR-RES ovarian): > 100 µM
TGI (HOP-62 NSCLC): > 100 µM
TGI (CCRF-CEM leukemia): > 100 µM
TGI (SW-620 colon): > 100 µM
TGI (HCT-15 colon): > 100 µM
TGI (T-47D breast): 67.7 µM
TGI (EKVX NSCLC): > 100 µM
TGI (SF-268 CNS): > 100 µM
TGI (A498 renal): 99.2 µM
TGI (KM12 colon): > 100 µM

Cc1ccc(N2C=Nn3c(nc4sc5c(c4c3=O)CCCC5)C2)cc1
TGI (NCI-H23 lung): > 100 µM
TGI (UACC-62 melanoma): > 100 µM
TGI (RXF 393 renal): > 100 µM
TGI (SNB-19 CNS): > 100 µM
TGI (MDA-MB-231 breast): > 100 µM
TGI (HOP-92 NSCLC): > 100 µM
TGI (786-0 renal): > 100 µM
TGI (SNB-75 CNS): > 100 µM
TGI (NCI/ADR-RES ovarian): > 100 µM
TGI (HOP-62 NSCLC): 69.2 µM
TGI (CCRF-CEM leukemia): > 100 µM
TGI (SW-620 colon): > 100 µM
TGI (HCT-15 colon): > 100 µM
TGI (T-47D breast): > 100 µM
TGI (EKVX NSCLC): > 100 µM
TGI (SF-268 CNS): > 100 µM
TGI (A498 renal): > 100 µM
TGI (KM12 colon): > 100 µM

COC(=O)[C@H](Cc1ccccc1)NC(=O)OCC1OC(n2cc(C)c(=O)[nH]c2=O)CC1N=[N+]=[N-] (stereo not given in full)
TGI (NCI-H23 lung): > 100 µM
TGI (UACC-62 melanoma): > 100 µM
TGI (RXF 393 renal): > 100 µM
TGI (SNB-19 CNS): > 100 µM
TGI (MDA-MB-231 breast): > 100 µM
TGI (HOP-92 NSCLC): > 100 µM
TGI (786-0 renal): > 100 µM
TGI (SNB-75 CNS): > 100 µM
TGI (NCI/ADR-RES ovarian): > 100 µM
TGI (HOP-62 NSCLC): > 100 µM
TGI (CCRF-CEM leukemia): > 100 µM
TGI (SW-620 colon): > 100 µM
TGI (HCT-15 colon): > 100 µM
TGI (T-47D breast): > 100 µM
TGI (EKVX NSCLC): > 100 µM
TGI (SF-268 CNS): > 100 µM
TGI (KM12 colon): > 100 µM

O=C1C=CC(=O)c2c(O)c(NCCN3CCOCC3)c(Cl)c(O)c21
TGI (UACC-62 melanoma): 3.03 µM
TGI (SNB-19 CNS): 3.23 µM
TGI (MDA-MB-231 breast): 6.43 µM
TGI (HOP-92 NSCLC): 6.39 µM
TGI (786-0 renal): 5.47 µM
TGI (SNB-75 CNS): 3.27 µM
TGI (NCI/ADR-RES ovarian): 4.88 µM
TGI (SF-539 CNS): 3.33 µM
TGI (HOP-62 NSCLC): 3.72 µM
TGI (CCRF-CEM leukemia): 4.46 µM
TGI (SW-620 colon): 2.91 µM
TGI (HCT-15 colon): 3.87 µM
TGI (T-47D breast): 4.51 µM
TGI (EKVX NSCLC): > 10 µM
TGI (SF-268 CNS): 6.12 µM
TGI (A498 renal): > 10 µM
TGI (KM12 colon): > 10 µM

CC(C)(C)n1[nH]c(=O)n(C(C)(C)C)c1=O
TGI (NCI-H23 lung): > 100 µM
TGI (UACC-62 melanoma): > 100 µM
TGI (RXF 393 renal): > 100 µM
TGI (SNB-19 CNS): > 100 µM
TGI (MDA-MB-231 breast): > 100 µM
TGI (SR leukemia): > 100 µM
TGI (HOP-92 NSCLC): > 100 µM
TGI (786-0 renal): > 100 µM
TGI (SNB-75 CNS): > 100 µM
TGI (SF-539 CNS): > 100 µM
TGI (SW-620 colon): > 100 µM
TGI (HCT-15 colon): > 100 µM
TGI (T-47D breast): > 100 µM
TGI (SF-268 CNS): > 100 µM
TGI (A498 renal): > 100 µM
TGI (KM12 colon): > 100 µM

CC(=O)OCCCCn1nncc1Cn1ccc(=O)n(Cc2cnnn2CCCCOC(C)=O)c1=O
TGI (NCI-H23 lung): > 100 µM
TGI (RXF 393 renal): > 100 µM
TGI (SNB-19 CNS): > 100 µM
TGI (MDA-MB-231 breast): > 100 µM
TGI (HOP-92 NSCLC): > 100 µM
TGI (786-0 renal): > 100 µM
TGI (SNB-75 CNS): > 100 µM
TGI (NCI/ADR-RES ovarian): > 100 µM
TGI (SF-539 CNS): > 100 µM
TGI (HOP-62 NSCLC): > 100 µM
TGI (CCRF-CEM leukemia): 2.61 µM
TGI (SW-620 colon): > 100 µM
TGI (HCT-15 colon): > 100 µM
TGI (T-47D breast): > 100 µM
TGI (EKVX NSCLC): > 100 µM
TGI (SF-268 CNS): > 100 µM
TGI (A498 renal): > 100 µM
TGI (KM12 colon): > 100 µM
